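96-well plates; 48 h exposure; 5 concentrations. Endpoints by linear interpolation between flanking doses. Not reached: highest tested concentration assigned. The concentration for 50% growth inhibition is given as GI50. At the TGI there is no net growth.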
Columns and labels:
Test in all cases: NCI-60 cell line screen, 48 h
SF-268 CNS = tested on: SF-268 CNS
UACC-62 melanoma = tested on: UACC-62 melanoma
NCI-H522 lung = tested on: NCI-H522 lung
UACC-257 melanoma = tested on: UACC-257 melanoma
OVCAR-3 ovarian = tested on: OVCAR-3 ovarian
LOX IMVI melanoma = tested on: LOX IMVI melanoma
NCI-H23 lung = tested on: NCI-H23 lung
PC-3 prostate = tested on: PC-3 prostate
HOP-92 NSCLC = tested on: HOP-92 NSCLC
SK-MEL-5 melanoma = tested on: SK-MEL-5 melanoma
HL-60(TB) leukemia = tested on: HL-60(TB) leukemia
KM12 colon = tested on: KM12 colon
RPMI-8226 leukemia = tested on: RPMI-8226 leukemia
OVCAR-5 ovarian = tested on: OVCAR-5 ovarian
HS 578T breast = tested on: HS 578T breast
MALME-3M melanoma = tested on: MALME-3M melanoma
HCT-15 colon = tested on: HCT-15 colon
ACHN renal = tested on: ACHN renal
SN12C renal = tested on: SN12C renal
TK-10 renal = tested on: TK-10 renal
CAKI-1 renal = tested on: CAKI-1 renal
SK-OV-3 ovarian = tested on: SK-OV-3 ovarian
NCI-H226 lung = tested on: NCI-H226 lung
SK-MEL-28 melanoma = tested on: SK-MEL-28 melanoma
T-47D breast = tested on: T-47D breast
HCT-116 colon = tested on: HCT-116 colon
CCRF-CEM leukemia = tested on: CCRF-CEM leukemia
M14 melanoma = tested on: M14 melanoma

Nc1cc2c([nH]c[n+]2CC#CCCl)c(SCC#CCCl)n1
GI50 (SF-268 CNS): 552 nM
TGI (SF-268 CNS): 2010 nM
GI50 (UACC-62 melanoma): 455 nM
TGI (UACC-62 melanoma): 1860 nM
GI50 (NCI-H522 lung): 522 nM
TGI (NCI-H522 lung): 2080 nM
GI50 (UACC-257 melanoma): 821 nM
TGI (UACC-257 melanoma): 2740 nM
GI50 (OVCAR-3 ovarian): 592 nM
TGI (OVCAR-3 ovarian): 1960 nM
GI50 (LOX IMVI melanoma): 363 nM
TGI (LOX IMVI melanoma): 1440 nM
GI50 (NCI-H23 lung): 1230 nM
TGI (NCI-H23 lung): 2620 nM
GI50 (PC-3 prostate): 1400 nM
TGI (PC-3 prostate): 4340 nM
GI50 (HOP-92 NSCLC): 1840 nM
TGI (HOP-92 NSCLC): 3860 nM
GI50 (SK-MEL-5 melanoma): 1190 nM
TGI (SK-MEL-5 melanoma): 2430 nM
GI50 (HL-60(TB) leukemia): 388 nM
TGI (HL-60(TB) leukemia): 2640 nM
GI50 (KM12 colon): 1250 nM
TGI (KM12 colon): 2680 nM
GI50 (RPMI-8226 leukemia): 1000 nM
TGI (RPMI-8226 leukemia): 6570 nM
GI50 (OVCAR-5 ovarian): 2130 nM
TGI (OVCAR-5 ovarian): 3680 nM
GI50 (HS 578T breast): 1690 nM
TGI (HS 578T breast): 7470 nM
GI50 (MALME-3M melanoma): 1090 nM
TGI (MALME-3M melanoma): 3170 nM
GI50 (HCT-15 colon): 1220 nM
TGI (HCT-15 colon): 2890 nM
GI50 (ACHN renal): 580 nM
TGI (ACHN renal): 2940 nM
GI50 (SN12C renal): 1160 nM
TGI (SN12C renal): 3420 nM
GI50 (TK-10 renal): 1420 nM
TGI (TK-10 renal): 3040 nM
GI50 (CAKI-1 renal): 331 nM
TGI (CAKI-1 renal): 1360 nM
GI50 (SK-OV-3 ovarian): 1370 nM
TGI (SK-OV-3 ovarian): 2810 nM
GI50 (NCI-H226 lung): 1220 nM
TGI (NCI-H226 lung): 4120 nM
GI50 (SK-MEL-28 melanoma): 1340 nM
TGI (SK-MEL-28 melanoma): 2750 nM
GI50 (T-47D breast): 1120 nM
TGI (T-47D breast): 2450 nM
GI50 (HCT-116 colon): 738 nM
TGI (HCT-116 colon): 2350 nM
GI50 (CCRF-CEM leukemia): 562 nM
TGI (CCRF-CEM leukemia): > 100000 nM
GI50 (M14 melanoma): 1110 nM

— PubChem BioAssay (NCI)
